Common to all, as to assay type: biochemical
In one assay the target is BTK (Homo sapiens (Human), UniProt Q06187). Nature of the assay: HTRF KinEASE-TK kinase assay, BTK. As to conditions: 3 h preincubation; for remaining activity at 1 µM: 1 μM compound, read-out: % BTK Remaining activity vs DMSO (1 μM, 3 h); for remaining activity at 10 µM: 10 μM compound, read-out: % BTK Remaining activity vs DMSO (10 μM, 3 h). As for the experimental part:
Kinase activity was monitored using a HTRF® KinEASE-TK kit from Cisbio (62TK0PEC). For BTK, the 1× kinase buffer was supplemented with 10 mM MnCl2, 5 mM MgCl2, 1 uM ATPγS, 1 mM TCEP and 100 fold diluted Supplementary Enzyme Buffer. BTK was purchased from Promega. […] Reaction with substrate was then initiated by adding biotinylated substrate and ATP and the reaction was allowed to proceed for 45 min. […] After 60 min of incubation, the fluorescence emission was measured at 620 nm and 665 nm. The ratio of Em 665 nm to Em 620 nm was proportional to the amount of substrate phosphorylated by the kinase.
On the technique in general: Time-resolved FRET reads energy transfer from a long-lived donor to a nearby acceptor.

The next assay addresses FGFR4 (Homo sapiens (Human), UniProt P22455). The assay is described as follows: HTRF KinEASE-TK kinase assay, FGFR4. As to conditions: for IC50: dose response; for remaining activity at 1 µM: read-out: % FGFR4 Remaining activity vs DMSO (1 μM, 3 h); for remaining activity at 10 µM: read-out: % FGFR4 Remaining activity vs DMSO (10 μM, 3 h). On the procedure: (§1) Kinase activity was monitored using a HTRF® KinEASE-TK kit from Cisbio (62TK0PEC). […] FGFR-4 was purchased from Promega. 0.333 ng/ul FGFR4 (5.12 nM) was preincubated in the absence or presence of inhibitor at room temperature for 3 hours. Reaction with substrate was then initiated by adding biotinylated substrate and ATP. […] The reaction was terminated by adding 31.25 nM SA-XL665 and 100 fold diluted europium labelled antibody (Eu-Ab), diluted in 1× detection buffer that contained EDTA. After 60 min of incubation, the fluorescence emission was measured at 620 nm and 665 nm. The ratio of Em 665 nm to Em 620 nm was proportional to the amount of substrate phosphorylated by the kinase.

A further assay has as its target EGFR (Homo sapiens (Human), UniProt P00533). Nature of the assay: HTRF KinEASE-TK kinase assay, EGFR. The conditions noted are these: 3 h preincubation; for remaining activity at 1 µM: 1 μM compound, read-out: % EGFR Remaining activity vs DMSO (1 μM, 3 h); for remaining activity at 10 µM: 10 μM compound, read-out: % EGFR Remaining activity vs DMSO (10 μM, 3 h); for IC50: dose response, read-out: EGFR Inhibition IC50. As for the experimental part: Kinase activity was monitored using a HTRF® KinEASE-TK kit from Cisbio (62TK0PEC). The buffer used was 1× kinase buffer supplemented with 2 mM MnCl2, 5 mM MgCl2, 1 mM TCEP and 100× diluted Supplementary Enzyme Buffer. EGFR was purchased from Promega. […] Reaction with substrate was then initiated by adding biotinylated substrate and ATP. […] After 60 min of incubation, the fluorescence emission was measured at 620 nm and 665 nm. The ratio of Em 665 nm to Em 620 nm was proportional to the amount of substrate phosphorylated by the kinase.
For initial screening, enzymes were pre incubated with compounds at 2 different concentrations (1 and 10 uM final) and 0.5% DMSO.

The target in another assay is BMX (Homo sapiens (Human), UniProt P51813). The assay is described as follows: HTRF KinEASE-TK kinase assay, BMX. As to conditions: 3 h preincubation; for remaining activity at 1 µM: 1 uM compound; for remaining activity at 10 µM: 10 uM compound. As for the experimental part: as §1, with “BMX” for “FGFR-4”, “BMX (3.03” for “FGFR4 (5.12”, “The reaction” for “Reaction”, “Reaction” for “The reaction”

The target of a further assay is JAK3 (Homo sapiens (Human), UniProt P52333). Nature of the assay: HTRF KinEASE-TK kinase assay, JAK3. The conditions noted are these: for remaining activity at 1 µM: read-out: % JAK3 Remaining activity vs DMSO (1 μM, 3 h); for remaining activity at 10 µM: read-out: % JAK3 Remaining activity vs DMSO (10 μM, 3 h). As for the experimental part: as §1, with “JAK-3” for “FGFR-4”, “0.0133” for “0.333”, “JAK3 (0.21” for “FGFR4 (5.12”

In a further assay the target is RIPK2 (Homo sapiens (Human), UniProt O43353). Nature of the assay: In vitro RIPK2 inhibition. The conditions noted are these: for remaining activity at 1 µM: read-out: % RIPK2 Remaining activity vs DMSO (1 μM, 3 h); for remaining activity at 10 µM: read-out: % RIPK2 Remaining activity vs DMSO (10 μM, 3 h).

Our source for the IC50 and remaining activity values is patent US20240018153A1, “BENZENESULFONAMIDE DERIVATIVES AND USES THEREOF” (2692372 ONTARIO, INC., priority 2020, published 2024).

Sequence of EGFR (P00533 25-1210): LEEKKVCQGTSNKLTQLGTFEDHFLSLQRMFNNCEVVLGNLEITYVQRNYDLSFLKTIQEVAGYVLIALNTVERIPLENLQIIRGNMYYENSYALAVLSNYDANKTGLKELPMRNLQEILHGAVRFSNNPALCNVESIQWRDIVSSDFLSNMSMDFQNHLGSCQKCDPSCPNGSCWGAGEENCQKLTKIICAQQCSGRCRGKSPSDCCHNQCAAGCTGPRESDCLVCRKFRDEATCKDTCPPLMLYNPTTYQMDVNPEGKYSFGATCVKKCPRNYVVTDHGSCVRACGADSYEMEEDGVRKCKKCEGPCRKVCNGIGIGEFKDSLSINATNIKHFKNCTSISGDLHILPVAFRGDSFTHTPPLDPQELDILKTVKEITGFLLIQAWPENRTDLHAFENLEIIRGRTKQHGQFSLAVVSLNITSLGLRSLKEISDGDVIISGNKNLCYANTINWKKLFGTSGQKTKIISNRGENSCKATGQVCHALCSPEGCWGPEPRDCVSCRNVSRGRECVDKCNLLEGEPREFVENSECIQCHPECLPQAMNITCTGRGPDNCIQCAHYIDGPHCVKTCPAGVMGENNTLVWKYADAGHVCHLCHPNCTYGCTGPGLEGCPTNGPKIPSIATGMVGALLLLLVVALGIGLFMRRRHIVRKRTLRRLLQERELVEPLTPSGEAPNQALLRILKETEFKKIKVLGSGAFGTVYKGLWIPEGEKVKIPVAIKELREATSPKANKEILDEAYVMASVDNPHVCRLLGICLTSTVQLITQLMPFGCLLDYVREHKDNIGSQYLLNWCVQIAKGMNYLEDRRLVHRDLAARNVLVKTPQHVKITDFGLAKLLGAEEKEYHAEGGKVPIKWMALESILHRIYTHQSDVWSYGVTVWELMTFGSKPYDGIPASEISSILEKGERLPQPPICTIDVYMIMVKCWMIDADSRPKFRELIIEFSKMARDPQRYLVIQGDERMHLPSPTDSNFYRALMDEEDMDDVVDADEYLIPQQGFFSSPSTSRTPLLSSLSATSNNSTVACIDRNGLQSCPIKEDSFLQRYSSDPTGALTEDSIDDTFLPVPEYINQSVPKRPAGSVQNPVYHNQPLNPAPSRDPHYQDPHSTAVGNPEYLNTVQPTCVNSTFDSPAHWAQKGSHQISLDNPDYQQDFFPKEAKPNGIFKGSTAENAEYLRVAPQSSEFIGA
Sequence of FGFR4 (P22455 22-802): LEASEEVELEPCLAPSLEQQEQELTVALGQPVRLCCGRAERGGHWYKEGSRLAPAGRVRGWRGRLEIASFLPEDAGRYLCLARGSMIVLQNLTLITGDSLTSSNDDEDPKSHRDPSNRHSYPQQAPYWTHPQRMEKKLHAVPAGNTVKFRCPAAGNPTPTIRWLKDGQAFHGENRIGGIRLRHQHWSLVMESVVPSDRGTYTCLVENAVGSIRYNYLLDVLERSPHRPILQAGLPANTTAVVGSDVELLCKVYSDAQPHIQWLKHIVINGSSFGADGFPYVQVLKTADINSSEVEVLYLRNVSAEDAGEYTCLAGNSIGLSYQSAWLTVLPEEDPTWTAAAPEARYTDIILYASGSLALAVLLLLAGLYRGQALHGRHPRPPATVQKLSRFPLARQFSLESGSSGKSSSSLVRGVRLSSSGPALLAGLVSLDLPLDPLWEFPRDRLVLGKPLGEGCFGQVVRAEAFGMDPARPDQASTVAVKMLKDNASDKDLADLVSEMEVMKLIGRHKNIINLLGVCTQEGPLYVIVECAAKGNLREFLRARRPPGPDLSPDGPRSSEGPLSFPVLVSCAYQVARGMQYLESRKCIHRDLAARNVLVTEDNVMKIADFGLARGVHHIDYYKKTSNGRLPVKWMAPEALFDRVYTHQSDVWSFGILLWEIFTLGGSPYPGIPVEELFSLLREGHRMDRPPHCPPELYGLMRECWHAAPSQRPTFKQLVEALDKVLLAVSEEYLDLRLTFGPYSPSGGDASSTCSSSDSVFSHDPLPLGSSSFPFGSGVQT
Sequence of RIPK2 (O43353 whole entry, species assumed): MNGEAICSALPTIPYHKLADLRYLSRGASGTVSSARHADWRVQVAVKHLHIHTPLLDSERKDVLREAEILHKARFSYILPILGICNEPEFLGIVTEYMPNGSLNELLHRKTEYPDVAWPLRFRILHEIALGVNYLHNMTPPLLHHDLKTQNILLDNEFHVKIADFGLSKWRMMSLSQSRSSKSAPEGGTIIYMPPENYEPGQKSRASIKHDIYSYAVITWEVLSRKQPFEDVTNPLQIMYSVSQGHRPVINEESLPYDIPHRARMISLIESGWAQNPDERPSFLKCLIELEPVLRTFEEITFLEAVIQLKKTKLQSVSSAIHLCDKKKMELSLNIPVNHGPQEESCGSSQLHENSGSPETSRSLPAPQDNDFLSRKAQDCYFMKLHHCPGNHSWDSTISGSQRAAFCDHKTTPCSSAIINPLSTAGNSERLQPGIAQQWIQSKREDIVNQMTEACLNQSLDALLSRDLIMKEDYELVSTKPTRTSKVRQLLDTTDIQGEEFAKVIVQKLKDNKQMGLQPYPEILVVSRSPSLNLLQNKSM
Sequence of BTK (Q06187 whole entry): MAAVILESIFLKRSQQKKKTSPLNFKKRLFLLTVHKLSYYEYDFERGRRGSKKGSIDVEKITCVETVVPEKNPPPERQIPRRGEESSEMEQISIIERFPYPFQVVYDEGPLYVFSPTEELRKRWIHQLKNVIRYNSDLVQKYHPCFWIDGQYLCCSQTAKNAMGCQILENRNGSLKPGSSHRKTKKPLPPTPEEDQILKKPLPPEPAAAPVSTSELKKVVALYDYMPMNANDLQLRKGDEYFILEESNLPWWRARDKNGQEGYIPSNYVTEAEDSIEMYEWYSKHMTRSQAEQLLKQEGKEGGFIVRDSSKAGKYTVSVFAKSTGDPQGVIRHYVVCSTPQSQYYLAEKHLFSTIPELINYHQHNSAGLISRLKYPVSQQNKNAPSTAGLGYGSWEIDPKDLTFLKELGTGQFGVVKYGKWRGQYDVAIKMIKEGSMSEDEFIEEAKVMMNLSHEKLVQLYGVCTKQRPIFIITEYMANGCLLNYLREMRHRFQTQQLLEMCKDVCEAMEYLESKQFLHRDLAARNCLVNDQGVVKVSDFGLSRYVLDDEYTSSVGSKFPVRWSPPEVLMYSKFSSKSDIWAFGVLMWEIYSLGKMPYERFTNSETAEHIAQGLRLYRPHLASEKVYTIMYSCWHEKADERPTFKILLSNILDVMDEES
Sequence of BMX (P51813 whole entry): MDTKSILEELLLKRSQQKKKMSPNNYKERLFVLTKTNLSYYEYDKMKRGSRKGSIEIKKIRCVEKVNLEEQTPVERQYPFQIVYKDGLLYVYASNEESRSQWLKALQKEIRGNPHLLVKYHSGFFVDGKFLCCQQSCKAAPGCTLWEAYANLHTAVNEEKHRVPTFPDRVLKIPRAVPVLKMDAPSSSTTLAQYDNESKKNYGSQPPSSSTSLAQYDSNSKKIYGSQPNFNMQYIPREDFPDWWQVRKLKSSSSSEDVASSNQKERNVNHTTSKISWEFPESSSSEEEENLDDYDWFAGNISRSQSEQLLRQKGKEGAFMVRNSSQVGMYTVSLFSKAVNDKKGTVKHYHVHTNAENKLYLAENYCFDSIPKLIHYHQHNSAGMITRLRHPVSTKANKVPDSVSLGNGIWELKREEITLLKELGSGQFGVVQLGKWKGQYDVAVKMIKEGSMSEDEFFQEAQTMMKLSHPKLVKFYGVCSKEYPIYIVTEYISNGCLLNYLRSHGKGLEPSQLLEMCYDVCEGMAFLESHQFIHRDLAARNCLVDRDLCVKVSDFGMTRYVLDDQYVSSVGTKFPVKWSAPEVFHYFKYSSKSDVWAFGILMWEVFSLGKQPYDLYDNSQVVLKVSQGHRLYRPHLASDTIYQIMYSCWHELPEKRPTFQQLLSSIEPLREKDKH
Sequence of JAK3 (P52333 781-1124): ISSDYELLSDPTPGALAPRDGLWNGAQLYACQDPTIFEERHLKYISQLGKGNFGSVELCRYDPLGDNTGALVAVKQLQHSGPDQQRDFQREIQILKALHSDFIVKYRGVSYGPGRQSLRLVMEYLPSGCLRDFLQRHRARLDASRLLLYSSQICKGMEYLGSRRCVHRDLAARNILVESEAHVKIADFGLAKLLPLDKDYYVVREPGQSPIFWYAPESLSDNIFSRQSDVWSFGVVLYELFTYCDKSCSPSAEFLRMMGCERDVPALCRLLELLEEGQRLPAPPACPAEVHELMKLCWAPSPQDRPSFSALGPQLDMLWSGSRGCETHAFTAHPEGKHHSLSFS

As a reminder, the IC50 is the concentration at which inhibition is half-maximal. For `COCCOc1ccc(Nc2ncc(F)c(Nc3cccc(NC(=O)c4c(F)c(F)c(F)c(F)c4[S@+](C)[O-])c3)n2)cc1` (racemic) [Compound I-62, 2,3,4,5-tetrafluoro-N-(3-((5-fluoro-2-((4-(2-methoxyethoxy)phenyl)amino)pyrimidin-4-yl)amino)phenyl)-6-(methylsulfinyl)benzamide], the IC50 was less than 1 µM on BTK (dose response, read-out: BTK Inhibition IC50) and less than 1 µM against FGFR4.

A word on the remaining activity: it is the signal under treatment as a percentage of the control signal. On to `CN(CCn1nc(-c2ccc(Oc3ccccc3)cc2)c2c(N)ncnc21)C(=O)c1c(F)c(F)c(F)c(F)c1S(=O)(=O)N(C)C` [Compound I-30, N-(2-(4-amino-3-(4-phenoxyphenyl)-1H-pyrazolo[3,4-d]pyrimidin-1-yl)ethyl)-2-(N,N-dimethylsulfamoyl)-3,4,5,6-tetrafluoro-N-methylbenzamide], for which the remaining activity at 1 µM at EGFR is more than 90%; on BTK, less than 50%; at BMX it was 50 to 90%; on JAK3 it was more than 90%; on FGFR4, less than 50%; on RIPK2, 50 to 90%. The remaining activity at 10 µM on EGFR was 50 to 90%; at BTK, less than 50%; on BMX it was less than 50%; on JAK3 it was 50 to 90%; at FGFR4, less than 50%; on RIPK2 it was more than 90%. Besides, the half-maximal inhibitory concentration (IC50) against FGFR4 was less than 1 µM.

Consider `CS(=O)(=O)c1c(F)c(F)c(F)c(F)c1C(=O)N1CC(n2nc(-c3ccc(Oc4ccccc4)cc3)c3c(N)ncnc32)C1` [Compound I-27, (3-(4-amino-3-(4-phenoxyphenyl)-1H-pyrazolo[3,4-d]pyrimidin-1-yl)azetidin-1-yl)(2,3,4,5-tetrafluoro-6-(methylsulfonyl)phenyl)methanone], for which the remaining activity at 1 µM on EGFR was less than 50%; at BTK it was less than 50%; on BMX, less than 50%; at JAK3, less than 50%; on FGFR4 it was 50 to 90%; at RIPK2, 50 to 90%. For the same compound, the remaining activity at 10 µM on EGFR was less than 50%; on BTK, less than 50%; at BMX it was less than 50%; on JAK3 it was less than 50%; at FGFR4, less than 50%; at RIPK2, more than 90%. Besides, the IC50 on EGFR and at JAK3 (dose response) was less than 1 µM throughout.

With `O=S(=O)(Nc1cc2c(Nc3ccc(F)c(Cl)c3)ncnc2cc1O[C@H]1CCOC1)c1c(F)c(F)c(F)c(F)c1C(F)(F)F` [Compound I-1, (S)—N-(4-((3-chloro-4-fluorophenyl)amino)-7-((tetrahydrofuran-3-yl)oxy)quinazolin-6-yl)-2,3,4,5-tetrafluoro-6-(trifluoromethyl)benzenesulfonamide], the remaining activity at 1 µM on EGFR was less than 50%; at BTK it was 50 to 90%; at BMX, 50 to 90%; at JAK3, 50 to 90%; at FGFR4, more than 90%. Further, the remaining activity at 10 µM on EGFR is less than 50%; at BTK it was less than 50%; on BMX, 50 to 90%; at JAK3 it was less than 50%; on FGFR4 it was more than 90%. The half-maximal inhibitory concentration (IC50) on EGFR is less than 1 µM.

As to `CS(=O)(=O)c1c(F)c(F)c(F)c(F)c1CNCCn1nc(-c2ccc(Oc3ccccc3)cc2)c2c(N)ncnc21` [Compound I-44, 3-(4-phenoxyphenyl)-1-(2-((2,3,4,5-tetrafluoro-6-(methylsulfonyl)benzyl)amino)ethyl)-1H-pyrazolo[3,4-d]pyrimidin-4-amine], the remaining activity at 1 µM at EGFR is more than 90%; on BTK, less than 50%; at BMX, less than 50%; on JAK3, more than 90%; at FGFR4 it was more than 90%. Also, the remaining activity at 10 µM at EGFR, at BTK, on BMX, on JAK3 and on FGFR4 was less than 50% each time.

Consider `CN(C)S(=O)(=O)c1c(F)c(F)c(F)c(F)c1C(=O)N1CCC[C@@H](n2nc(-c3ccc(Oc4ccccc4)cc3)c3c(N)ncnc32)C1` [Compound I-31, (R)-2-(3-(4-amino-3-(4-phenoxyphenyl)-1H-pyrazolo[3,4-d]pyrimidin-1-yl)piperidine-1-carbonyl)-3,4,5,6-tetrafluoro-N,N-dimethylbenzenesulfonamide], for which the remaining activity at 1 µM on EGFR was more than 90%; at BMX, less than 50%; at JAK3, more than 90%; at FGFR4 it was 50 to 90%; on RIPK2 it was 50 to 90%. For the same compound, the remaining activity at 10 µM at EGFR is more than 90%; at BMX, less than 50%; on JAK3 it was more than 90%; at FGFR4 it was more than 90%; at RIPK2, more than 90%.

`COCCOc1ccc(Nc2ncc(F)c(Nc3cccc(NS(=O)(=O)c4c(F)c(F)c(F)c(F)c4CF)c3)n2)cc1` [Compound I-58, 2,3,4,5-tetrafluoro-N-(3-((5-fluoro-2-((4-(2-methoxyethoxy)phenyl)amino)pyrimidin-4-yl)amino)phenyl)-6-(fluoromethyl)benzenesulfonamide]: the remaining activity at 1 µM was more than 90% at EGFR; less than 50% at BTK; less than 50% at BMX; more than 90% at JAK3; less than 50% at FGFR4. Besides, the remaining activity at 10 µM at EGFR is more than 90%; on BTK, less than 50%; on BMX, less than 50%; at JAK3, less than 50%; on FGFR4, less than 50%. At FGFR4, this compound had an IC50 of less than 1 µM.

Regarding `CN(CCn1nc(-c2ccc(Oc3ccccc3)cc2)c2c(N)ncnc21)c1c(F)c(F)c(F)c(F)c1S(C)(=O)=O` [Compound I-43, 1-(2-(methyl(2,3,4,5-tetrafluoro-6-(methylsulfonyl)phenyl)amino)ethyl)-3-(4-phenoxyphenyl)-1H-pyrazolo[3,4-d]pyrimidin-4-amine], the remaining activity at 1 µM at EGFR was more than 90%; at BTK it was more than 90%; on BMX, 50 to 90%; at JAK3, more than 90%; at FGFR4 it was more than 90%. Further, the remaining activity at 10 µM was 50 to 90% at EGFR; more than 90% on BTK; more than 90% at BMX; more than 90% on JAK3; more than 90% at FGFR4.
